Key:
[1] = target: T1, Tyrosine-protein phosphatase non-receptor type 1 (Homo sapiens, UniProt P18031); assay: Inhibition of PTP1B (unknown origin) using nitrophenyl phosphate as substrate after 30 mins by spectrophotometry
T1 sequence (P18031 whole entry): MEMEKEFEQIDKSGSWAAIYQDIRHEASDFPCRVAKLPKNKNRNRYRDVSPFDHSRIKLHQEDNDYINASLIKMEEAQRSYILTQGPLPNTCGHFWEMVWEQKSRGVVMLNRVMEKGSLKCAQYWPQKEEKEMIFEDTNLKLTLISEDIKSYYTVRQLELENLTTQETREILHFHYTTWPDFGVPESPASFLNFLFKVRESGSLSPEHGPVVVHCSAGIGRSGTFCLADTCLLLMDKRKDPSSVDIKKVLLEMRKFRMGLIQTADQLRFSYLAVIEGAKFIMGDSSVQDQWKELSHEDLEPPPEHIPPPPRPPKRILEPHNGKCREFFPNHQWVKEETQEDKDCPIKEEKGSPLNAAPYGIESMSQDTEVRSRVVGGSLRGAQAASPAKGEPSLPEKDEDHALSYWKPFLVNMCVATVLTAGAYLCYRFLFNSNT

A-431 = assay: Cytotoxicity against human A431 cells at 100 uM by SRB method; type: cell-based; settings: a-431, 100 µM

IC50 [1] [µM] | Structure (SMILES) | Activity (A-431)
9.97 | CC1=CC(C)(C)N=C2C[C@@]3(C)CC(=O)C(C(C)C)=CC3=C12 | Non-toxic
9.71 | CC1=CC(C)(C)N=C2C[C@@]3(C)CC(=O)C(C(C)C)=C3C=C12 | Non-toxic
6.44 | CC1=CC(C)(C)N=C2C[C@]3(C)C(=O)C(C)(C)N=C3C(C)=C12 | Non-toxic
